From paper PMC12670405, “Second-Generation AURKA-Targeting PROTACs: Structural Optimization toward in Vivo Degradation in Neuroblastoma” (Journal of Medicinal Chemistry, 2025)

How the values were obtained:
[1] = system: NGP; assay: IncuCyte live-cell imaging, antiproliferative effect; assay type: cell-based; conditions: Homo sapiens, 72 h, read-out: Cell GI50 72h, NGP (Figure 4B)
In short: (§1)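 Cells seeded in 384-well plates (neuroblastoma 1200–5000, HEK293T 600 cells/well), adhered overnight, then compound-treated in duplicate or triplicate; confluency tracked by IncuCyte live-cell imaging. Normalized confluence averaged from 3 experiments; absolute GI50 interpolated from four-parameter variable-slope curves.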

[2] = system: HEK293T; assay: as above; assay type: cell-based; conditions: Homo sapiens, HEK-293T, 72 h, read-out: Cell GI50 72h
In short: as §1

[3] = system: SK-N-SH; assay: as above; assay type: cell-based; conditions: Homo sapiens, 72 h, read-out: Cell GI50 72h
In short: as §1

[4] = system: SJNB-8; assay: as above; assay type: cell-based; conditions: Homo sapiens, 72 h, read-out: Cell GI50 72h, SJNB-8
In short: as §1

[5] = system: RPE; assay: as above; assay type: cell-based; conditions: 72 h, read-out: Cell GI50 72h
[6] = system: IMR-32; assay: as above; assay type: cell-based; conditions: Homo sapiens, IMR-32, 72 h, read-out: Cell GI50 72h, IMR-32
In short: as §1

[7] = system: SK-N-AS; assay: as above; assay type: cell-based; conditions: Homo sapiens, 72 h, read-out: Cell GI50 72h
In short: as §1

[8] = target: T1, NanoLuc-AURKA (Homo sapiens, UniProt O14965); assay: NanoBRET target engagement, live (intact) cells; assay type: cell-based; conditions: intact HEK293T
T1 construct: Plasmids encoding full-length wild-type AURKA fused to Nano-Luc; host or cells: HEK293T
T1 sequence (O14965 1-403): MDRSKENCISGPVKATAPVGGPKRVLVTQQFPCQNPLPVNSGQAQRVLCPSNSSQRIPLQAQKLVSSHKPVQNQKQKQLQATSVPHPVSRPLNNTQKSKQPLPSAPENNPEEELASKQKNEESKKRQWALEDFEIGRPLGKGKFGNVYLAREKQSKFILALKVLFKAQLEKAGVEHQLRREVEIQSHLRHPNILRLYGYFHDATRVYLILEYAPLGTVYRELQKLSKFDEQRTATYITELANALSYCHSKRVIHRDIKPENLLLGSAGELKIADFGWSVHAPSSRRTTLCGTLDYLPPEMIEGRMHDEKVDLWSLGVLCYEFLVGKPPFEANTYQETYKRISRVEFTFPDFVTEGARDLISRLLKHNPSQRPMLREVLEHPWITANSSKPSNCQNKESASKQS
Experimental: (§2) The NanoBRET Target Engagement Assay (Promega) was performed according to the recommended instructions from the manufacturer. Plasmids encoding full-length wild-type AURKA fused to Nano-Luc via AURKA’s C-terminus (Promega, #NV1041) were transfected into HEK293T cells using FuGENE HD (Promega, #E2312). […] The plate was mixed at 900 rpm for 15 s, using an orbital shaker. For the permeabilized-mode, digitonin (Sigma-Aldrich, #D141) was additionally added at a final concentration of 50 μg/mL. Test compounds were subsequently administered in duplicate using the D300e digital dispenser (Tecan), followed by incubation for 2 h (37 °C, 5% CO2). To measure BRET, nanoglo substrate and extracellular nanoluc inhibitor (only in live-mode) (Promega #N2540) were added, and luminescence was measured using the GloMax Discover Microplate Reader (Promega) with a luminescence filter pair of 450 nm (BP filter, donor) and 600 nm (LP filter, acceptor). The NanoBRET ratio was calculated using the following formula: BRET ratio = 1000*[(acceptor signal/donor signal)with tracer – (acceptor signal/donor signal)no tracer]. Relative BRET ratios (%) were generated by normalizing to the negative DMSO control. The experiment was performed once with 2 replicate samples.
(§3) All dose–response curves were computed on GraphPad Prism using the Variable Slope (four parameters) equation. Absolute half-maximal degradation (DC50), growth inhibitory (GI50) and enzymatic inhibitory (IC50) concentrations, as well as inhibition constants (Ki) were derived from dose–response curves via interpolation. Statistical tests were performed on GraphPad Prism and detailed in the figure legends. Unless otherwise stated, “n” in the figure legends indicates the number of independent experiments conducted at different times.

[9] = target: T1, NanoLuc-AURKA; assay: NanoBRET target engagement, permeabilized mode; assay type: binding; conditions: permeabilized HEK293T
Experimental: as §2, §3

[10] = system: SK-N-BE(2)-C; assay: IncuCyte live-cell imaging, antiproliferative effect; assay type: cell-based, human; conditions: Homo sapiens, SK-N-BE(2)-C, 72 h, read-out: Cell GI50 72h
Description: Human neuroblastoma cell lines NGP, IMR-32, SJNB-8, SK-N-BE(2)-C, SJNB-1, SK-N-SH and SK-N-AS, as well as benign immortalized cell lines RPE and HEK293T were either bought commercially or obtained through research laboratories. […] Screening for mycoplasma contamination occurred routinely on the cells. Human neuroblastoma cell lines SH-SY5Y_shABCB1 & SH-SY5Y_shNTC were generated by transduction with pLKO.1-ABCB1_TRCN0000059683 shRNA (Sigma MISSION SHCLND) or pLKO.1-puro NT shRNA (Sigma MISSION SHC002) vectors respectively (Supplementary Table S6), packaged using Lenti-X293T (Clontech). Transduced cells were selected with 2 μg/mL puromycin. These cells were cultured in DMEM 4.5 g/L D-Glucose, L-Glutamine and 110 mg/L Sodium Pyruvate (Gibco, #11995065) supplemented with 10% fetal bovine serum, 1× Antibiotic-Antimycotic solution (Sigma-Aldrich, #A5955) and 1× MEM nonessential amino acids (Sigma-Aldrich, #M7145). Incubation of all cells occurred at 37 °C and 5% CO2.
Neuroblastoma cells were seeded in 384-well plates at different densities ranging from 1200 to 5000 cells/well and allowed to adhere overnight. RPE and HEK293T were seeded at 200 and 600 cells/well, respectively. Compound treatment was performed using the D300e Digital Dispenser (Tecan) in duplicate or triplicate and cell confluency was monitored over time using the IncuCyte Live-cell imaging system (Sartorius). […] Mean normalized confluences were calculated from 3 individual experiments.
as §3

| GI50 [3] [nM] | GI50 [7] [nM] | NanoLuc-AURKA engagement in intact cells (in words) [8] | potency relative to SK4454 and SK5527 in NanoBRET [9] | GI50 [10] [nM] | SMILES | GI50 [1] [nM] | GI50 [2] [nM] | GI50 [4] [nM] | GI50 [5] [nM] | GI50 [6] [nM] |
| --- | --- | --- | --- | --- | --- | --- | --- | --- | --- | --- |
| 249 | 911 | stronger AURKA engagement than TAS-119 | at least 10 times | 302 | O=C(O)[C@]1(Cc2cccc(Nc3nccs3)n2)CC[C@@H](Oc2cccc(Cl)c2F)CC1 [MK-5108, reference compound] | 263 | 1310 | 348 | 953 | 119 |
| 30 | 134 |  | at least 10 times | 57 | Cc1cc(Nc2nc(CC3(C(=O)O)CCN(C(=O)c4cccc(Cl)c4Cl)CC3)ccc2F)n[nH]1 [TAS-119, reference compound] | 20 | 184 | 44 | 250 | 11 |
